Calls of active or inactive are those of the source. The rule behind the calls is not given here.
Key:
[1] = compound enhancement of TRAIL-induced cell killing – NB7 cells plus caspase-8, luminescence, panel, dose response (AID 652002); details: NB7 neuroblastoma +caspase-8, no TRAIL, compound-alone cytotoxicity counter-screen, luminescence viability, NB7+Caspase-8
[2] = biological target: NB7+Caspase-8; assay: as above; details: NB7 neuroblastoma +caspase-8, TRAIL sensitization, luminescence viability, with TRAIL
[3] = biological target: Tumor necrosis factor receptor superfamily member 10B (Homo sapiens) (UniProt O14763); assay: as above; details: NB7 neuroblastoma +caspase-8, TRAIL sensitization, luminescence viability; NB7+Caspase-8; with TRAIL, mean of runs
[4] = run 1, single replicate panel EC50
[5] = run 2, single replicate panel EC50

Tumor necrosis factor receptor superfamily member 10B (Homo sapiens), sequence (O14763 whole entry, looked up): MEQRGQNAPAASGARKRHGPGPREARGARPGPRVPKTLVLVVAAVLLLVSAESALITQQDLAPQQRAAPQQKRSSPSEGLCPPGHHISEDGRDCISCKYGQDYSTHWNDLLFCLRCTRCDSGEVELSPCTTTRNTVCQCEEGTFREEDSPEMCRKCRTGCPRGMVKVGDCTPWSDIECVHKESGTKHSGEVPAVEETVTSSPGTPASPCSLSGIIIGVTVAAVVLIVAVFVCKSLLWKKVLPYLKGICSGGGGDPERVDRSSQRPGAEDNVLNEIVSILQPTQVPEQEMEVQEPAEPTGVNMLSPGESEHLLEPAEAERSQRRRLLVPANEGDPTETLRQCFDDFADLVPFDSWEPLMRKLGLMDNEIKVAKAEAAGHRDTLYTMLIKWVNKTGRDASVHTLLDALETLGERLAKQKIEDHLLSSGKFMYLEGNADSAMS

Structure (SMILES) | EC50 ([1]; mean of runs) | EC50 [1, 4] [µM] | EC50 [1, 5] [µM] | EC50 [2, 4] [µM] | EC50 [2, 5] [µM] | EC50 [3]
c1ccc(Nc2nnc(-c3cccnc3)s2)cc1 | > 12.5 µM (inactive) | > 12.5 | > 12.5 | > 12.5 | 5.66 | inactive
COCCCn1c(C(=O)Nc2ccc3c(c2)OCO3)cc2c(=O)n3cccc(C)c3nc21 | > 12.5 µM (inactive) | > 12.5 | > 12.5 | > 12.5 | > 12.5 | > 12.5 µM (inactive)
O=C(Nc1ccc2c(c1)OCCO2)NC1CCCCC1 | > 12.5 µM (inactive) | > 12.5 | > 12.5 | > 12.5 | 12 | inactive
O/C(=C\c1ccc2ccccc2n1)c1ccc(O)cc1O | > 12.5 µM (inactive) | > 12.5 | > 12.5 | > 12.5 | 7.58 | inactive
COC(=O)CSc1nc2cc(C)ccc2cc1C#N | > 12.5 µM (inactive) | > 12.5 | > 12.5 | > 12.5 | 7.44 | inactive
Cc1cccc(CC(=O)Nc2cc(C)c3c(=O)oc4ccccc4c3n2)c1 | > 12.5 µM (inactive) | > 12.5 | > 12.5 | > 12.5 | > 12.5 | > 12.5 µM (inactive)
COc1cccc(N/C=C/C(=O)c2ccc(Cl)cc2)c1 | inactive | 10.4 | 10.3 | > 12.5 | 11.1 | inactive
CCOC(=O)c1ccc(N/C=C/C(=O)c2ccco2)cc1 | > 12.5 µM (inactive) | > 12.5 | > 12.5 | > 12.5 | > 12.5 | > 12.5 µM (inactive)
Fc1ccc(-c2cnn3c(-c4ccncc4)ccnc23)cc1 | > 12.5 µM (inactive) | > 12.5 | > 12.5 | > 12.5 | > 12.5 | > 12.5 µM (inactive)
CCCCC1CCC(C(=O)N(CCC(C)C)c2c(N)n(CCCC)c(=O)[nH]c2=O)CC1 (stereo not drawn) | > 12.5 µM (inactive) | > 12.5 | > 12.5 | > 12.5 | > 12.5 | > 12.5 µM (inactive)
COc1ccccc1/C=C/C=N/n1c(-c2cc(-c3ccccc3)n[nH]2)n[nH]c1=S | > 12.5 µM (inactive) | > 12.5 | > 12.5 | > 12.5 | > 12.5 | > 12.5 µM (inactive)
Cc1ccc2oc(-c3cccc(N)c3)nc2c1 | inactive | 4.71 | 7.88 | > 12.5 | 5.69 | inactive
O=C1CCCc2nc(N3CCc4ccccc43)ncc21 | > 12.5 µM (inactive) | > 12.5 | > 12.5 | > 12.5 | > 12.5 | > 12.5 µM (inactive)
Cc1nn(-c2ccccc2)c2nc(N)c(C#N)c(-c3ccc(F)cc3)c12 | inactive | > 12.5 | 11.5 | > 12.5 | > 12.5 | > 12.5 µM (inactive)
COCCNc1c(-c2cc3ccc(C)c(C)c3[nH]c2=O)nc2ccccn12 | inactive | > 12.5 | 6.1 | 8.39 | 4.64 | inactive
O=C(ONC1=NCCCCC1)c1ccc(Cl)cc1 | inactive | > 12.5 | 7.44 | > 12.5 | > 12.5 | > 12.5 µM (inactive)
Cc1ccc(S(=O)(=O)Nc2ccccc2C(=O)Nc2nc(-c3ccc(F)cc3)cs2)cc1 | inactive | > 12.5 | 8.36 | > 12.5 | 9.9 | inactive
COc1ccc(-c2cc(C(=O)N/N=C/c3cccnc3)c3ccccc3n2)cc1 | inactive | 11.3 | > 12.5 | > 12.5 | > 12.5 | > 12.5 µM (inactive)
